Patent US8765688B2, “Anti-dandruff compositions containing peptides” (priority 2007, dated 2014)
Ends that are not written are not given here.

Tests used:
Type in all cases: cell-based
[1] = test system: Malassezia furfur; experiment: Long-term stability of P18 in shampoo basic formulations (40° C.) tested on M. furfur, CFU; details: stored at 40° C., 0; 12 and 22 days
Protocol: Long-term stability of the peptide P18 (H-KWKLFKKIPKFLHLAKKF-NH2; carboxy-terminal end amidated) in shampoo basic formulations was tested.
The following shampoo basic formulations were prepared:
The components Texapon NSO and Tego Betain L7 were mixed and dissolved. The pH was adjusted to pH 6-7 with NaOH. In the following, 100 mM of aqueous P18 peptide solution were prepared. A corresponding volume of 100 mM P18 peptide solution was added to each formulation in order to obtain peptide P18 final concentrations as indicated in table 15.
The formulations were stored at 40° C.
After 0; 12 and 22 days, the effect of the formulations against M. furfur was analyzed.
(§1) Growth medium: M472-Pityrosporum medium according to DSMZ
(§2) The components were sterilized at 121° C., 1 bar superatmospheric pressure for 20 minutes.
2 g/L of olive oil (sterilized by filtration and, after autoclaving, added to the other components) […]
A 96-well microtiter plate was filled with in each case 100 μl of M472-Pityrosporum medium and inoculated with M. furfur suspension of the overnight culture. The M. furfur suspension was adjusted at the start of the experiment to an optical density, measured at 600 nm, of 0.1. […]
After 24 hours, the colony-forming units (CFU) were determined. For this, 1 μl and 10 μl were plated out from each of the suspensions and, after incubation for 6 days, the colonies were counted.

[2] = test system: Brevibacterium epidermidis; experiment: Growth inhibition of Gram-positive bacteria by P18 (optical density at 620 nm); details: for optical density at 620 nm: B. epidermidis suspension, 25 μM P18 solution, mean of 8 mixtures
Protocol: (§3) The growth inhibition by P18 was investigated on Gram-positive and Gram-negative bacteria. Shin et al. 1999 (loc.cit.) had already detected an inhibition on the model organisms Escherichia coli and Bacillus subtilis within a period up to 18 hours.
(§4) The growth medium used for this was LB medium as complex medium for the organisms Escherichia coli, Bacillus subtilis and Brevibacterium epidermidis. The medium comprised 10 g of trypton, 5 g of yeast extract and 10 g of NaCl per liter.
(§5) The growth test was carried out as follows: A shake flask with medium was inoculated with Escherichia coli, Bacillus subtilis or Brevibacterium epidermidis and incubated with shaking overnight at 30° C. and 200 rpm. A 96-well microtiter plate was filled with in each case 100 μl LB medium and inoculated with E.-coli, B.-subtilis or B. epidermidis suspensions of the overnight culture. The bacteria suspension was adjusted at the start of the experiment to an optical density, measured at 620 nm, of about 0.02. The concentrates of the P18 inhibitor solutions were 1 mM in water.
(§6) The growth of the following mixtures was compared by measuring the optical density:
(§7) bacteria suspension without the addition of an inhibitor;
(§8) bacteria suspension and addition of an aqueous P18 solution with a final concentration of 25 μM. The aqueous P18 solution had been freshly prepared.
(§9) The growth was observed over a period of 40 hours by measuring the optical density. […] The growth of Gram-positive bacteria was inhibited initially.

[3] = test system: Bacillus subtilis; experiment: as above; details: for optical density at 620 nm: B. subtilis suspension, 25 μM P18 solution, mean of 8 mixtures
Protocol: as §3, §4, §5, §6, §7, §8, §9

[4] = test system: Malassezia furfur; experiment: Incubation times with P18 from 5 minutes to 1 hour, CFU of M. furfur, compared to Zincpyrithione
Protocol: Since growth inhibition of M. furfur by the peptide P18 (P18 peptide sequence H-KWKLFKKIPKFLHLAKKF-NH2; SEQ ID NO: 3) had so far only been analyzed over incubation times of more than one hour, now the effect of the peptide P18 within the first minutes of incubation (5 minutes, 10 minutes and 20 minutes) up to the first hour after adding to the M. furfur overnight culture was tested and compared to the reference substance Zincpyrithione (Sigma Aldrich). For this, the peptide P18 and the reference substance Zincpyrithione were used in concentrations of 100 μM, 200 μM and 500 μM. The experiments were carried out as follows:
as §1, §2
2 g/L of olive oil (sterilized by filtration and, after autoclaving, added to the other components)
Since it was a two-phase medium, the complete medium was treated with sonication in order to enlarge the phase boundary.
For agar plates, if appropriate, 150 g/L of agar agar were added to the medium.
The growth test was carried out as follows: A shake flask with M472-Pityrosporum medium was inoculated with M. furfur and incubated with shaking overnight at 30° C. and 200 rpm.
A 96-well microtiter plate was filled with in each case 100 μl of M472-Pityrosporum medium and inoculated with M. furfur suspension of the overnight culture. The M. furfur suspension was adjusted at the start of the experiment to an optical density, measured at 600 nm, of 0.1.
The growth of the following batches was compared:
M. furfur suspension and addition of the peptide P18 with a final concentration of 100 μM, plating out after 5 minutes, 10 minutes, 20 minutes and 60 minutes
M. furfur suspension and addition of the peptide P18 with a final concentration of 200 μM plating out after 5 minutes, 10 minutes, 20 minutes and 60 minutes
M. furfur suspension and addition of the peptide P18 with a final concentration of 500 μM plating out after 5 minutes, 10 minutes, 20 minutes and 60 minutes
M. furfur suspension and addition of Zincpyrithione with a final concentration of 100 μM plating out after 5 minutes, 10 minutes, 20 minutes and 60 minutes
M. furfur suspension and addition of Zincpyrithione with a final concentration of 200 μM plating out after 5 minutes, 10 minutes, 20 minutes and 60 minutes
M. furfur suspension and addition of Zincpyrithione with a final concentration of 500 μM plating out after 5 minutes, 10 minutes, 20 minutes and 60 minutes
The microtiter plate was incubated with shaking at 30° C.
After the incubation times indicated above, the colony-forming units (CFU) were determined by plating out 50 μl from each of the suspensions and, after incubation for 6 days, counting the colonies. The CFU was determined in order to exclude an influence of the two-phase medium and also the growth form of M. furfur on the optical density. The experiments were independently repeated.

Substance: KWKLFKKIPKFLHLAKKF-NH2 [P18, KWKLFKKIPKFLHLAKKF-NH2]
- long-term stability in shampoo basic formulations (in words) [1]: stable characteristics
- growth of B. epidermidis (in words) ([2]; 25 μM, within 40 hours): achieved growth densities comparable with the noninhibited culture
- optical density at 620 nm ([2]; incubation time 16 h): 0.29
- optical density at 620 nm ([2]; incubation time 24 h): 0.56
- optical density at 620 nm ([2]; incubation time 40 h): 1.24
- growth of B. subtilis (in words) ([3]; 25 μM, within 40 hours): achieved growth densities comparable with the noninhibited culture
- optical density at 620 nm ([3]; incubation time 16 h): 0.25
- optical density at 620 nm ([3]; incubation time 24 h): 0.96
- optical density at 620 nm ([3]; incubation time 40 h): 0.67
- number of living Malassezia furfur cells ([4]; after the first 10 minutes of incubation): considerably reduced as compared to incubation with Zincpyrithione
- colony-forming units after the indicated incubation time ([4]; final concentration 100 μM, 5 minutes): >1000
- colony-forming units after the indicated incubation time ([4]; final concentration 100 μM, 10 minutes): >1000
- colony-forming units after the indicated incubation time ([4]; final concentration 100 μM, 20 minutes): 604
- colony-forming units after the indicated incubation time ([4]; final concentration 100 μM, 60 minutes): 149 ± 60
- colony-forming units after the indicated incubation time ([4]; final concentration 200 μM, 5 minutes): >1000
- colony-forming units after the indicated incubation time ([4]; final concentration 200 μM, 10 minutes): >1000
- colony-forming units after the indicated incubation time ([4]; final concentration 200 μM, 20 minutes): >1000
- colony-forming units after the indicated incubation time ([4]; final concentration 200 μM, 60 minutes): 52 ± 16
- colony-forming units after the indicated incubation time ([4]; final concentration 500 μM, 5 minutes): >1000
- colony-forming units after the indicated incubation time ([4]; final concentration 500 μM, 10 minutes): 398 ± 290
- colony-forming units after the indicated incubation time ([4]; final concentration 500 μM, 20 minutes): 26 ± 6
- colony-forming units after the indicated incubation time ([4]; final concentration 500 μM, 60 minutes): 1 ± 1
